Results on 26 compounds are retold here after patent publication US8252935B2, “Piperidinyl and piperazinyl modulators of γ-secretase” (Janssen Pharmaceutica N.V., priority 2007, dated 2012).

The test addresses γ-secretase (Homo sapiens, UniProt P49768). Briefly: Screening for γ-secretase-modulating activity in SKNBE2 cells carrying APP 695 wild type (assay of Citron et al 1997). Format: cell-based. The conditions noted are these: SKNBE2, @ 1 uM; SKNBE2 cells carrying the APP 695 wild type. The protocol:
Screening was carried out using SKNBE2 cells carrying the APP 695—wild type, grown in DMEM/NUT-mix F12 (HAM) provided by Gibco (cat no. 31330-38) containing 5% Serum/Fe supplemented with 1% non-essential amino acids. Cells were grown to near confluency. The screening was performed using the assay as described in Citron et al (1997) Nature Medicine 3: 67.
By inhibition is commonly meant the share of the control response that was lost under treatment. Low values mean a response near the control, high ones a response far below the control. `CC(C)CCN1CCCC(c2cc(-c3ccc(C(F)(F)F)cc3)cc(C(CC(C)C)C(=O)O)c2)C1` (centres unmarked) [Example 62, 4-Methyl-2-{5-[1-(3-methyl-butyl)-piperidin-3-yl]-4′-trifluoromethyl-biphenyl-3-yl}-pentanoic acid] gave an inhibition at 1 µM of 5%. As for `CC(C)CC(C(=O)O)c1cc(-c2ccc(C(F)(F)F)cc2)cc(C2CCCN(Cc3ccc(Oc4ccc(F)cc4)cc3)C2)c1` (centres unmarked) [Example 48, 2-(5-{1-[4-(4-Fluoro-phenoxy)-benzyl]-piperidin-3-yl}-4′-trifluoromethyl-biphenyl-3-yl)-4-methyl-pentanoic acid], the figure is 59%.

`CC(C)CC(C(=O)O)c1cc(-c2ccc(C(F)(F)F)cc2)cc(C2CCCN(Cc3ccc4nnn(C)c4c3)C2)c1` (centres unmarked) [Example 50, 4-Methyl-2-{5-[1-(3-methyl-3H-benzotriazol-5-ylmethyl)-piperidin-3-yl]-4′-trifluoromethyl-biphenyl-3-yl}-pentanoic acid] yielded an inhibition at 1 µM of 17%. `CC(C)CC(C(=O)O)c1cc(-c2ccc(C(F)(F)F)cc2)cc(C2CCCN(c3ccc(F)c(F)c3)C2)c1` (centres unmarked) [Example 55, 2-{5-[1-(3,4-Difluoro-phenyl)-piperidin-3-yl]-4′-trifluoromethyl-biphenyl-3-yl}-4-methyl-pentanoic acid] registered an inhibition at 1 µM of 45%. For `CC(C)CC(C(=O)O)c1cc(-c2ccc(C(F)(F)F)cc2)cc(C2CCCN(S(=O)(=O)c3ccccc3C(F)(F)F)C2)c1` (centres unmarked) [Example 42, 4-Methyl-2-{4′-trifluoromethyl-5-[1-(2-trifluoromethyl-benzenesulfonyl)-piperidin-3-yl]-biphenyl-3-yl}-pentanoic acid], 1 µM produced 63% inhibition. `CC(C)C[C@@H](C(=O)O)c1cc(-c2ccc(C(F)(F)F)cc2)cc([C@@H]2CC[C@H](C(F)(F)F)NC2)c1` (relative stereo) [Example 35, 4-Methyl-2-[4′-trifluoromethyl-5-(6-trifluoromethyl-piperidin-3-yl)-biphenyl-3-yl]-pentanoic acid] came in with an inhibition at 1 µM of 8%. As for `CC(C)CC(C(=O)O)c1cc(-c2ccc(C(F)(F)F)cc2)cc(C2CCCN(Cc3cc(C(C)(C)C)cc(C(C)(C)C)c3)C2)c1` (centres unmarked) [Example 52, 2-{5-[1-(3,5-Di-tert-butyl-benzyl)-piperidin-3-yl]-4′-trifluoromethyl-biphenyl-3-yl}-4-methyl-pentanoic acid], the figure is 58%. `CC(C)C[C@H](C(=O)O)c1cc(-c2ccc(C(F)(F)F)cc2)cc([C@H]2CCC[C@@H](C(F)(F)F)N2)c1` [Example 19, (S) 4-Methyl-2-[4′-trifluoromethyl-5-(6-trifluoromethyl-piperidin-2-yl)-biphenyl-3-yl]-pentanoic acid]: testing at 1 µM gave an inhibition of 48%. `COc1ccc(CN2CCCC(c3cc(-c4ccc(C(F)(F)F)cc4)cc(C(CC(C)C)C(=O)O)c3)C2)cc1C(F)(F)F` (centres unmarked) [Example 51, 2-{5-[1-(4-Methoxy-3-trifluoromethyl-benzyl)-piperidin-3-yl]-4′-trifluoromethyl-biphenyl-3-yl}-4-methyl-pentanoic acid]: the inhibition at 1 µM turned out to be 48%. `CC(C)CC(C(=O)O)c1cc(-c2ccc(C(F)(F)F)cc2)cc(C2CCN(Cc3cc(F)cc(F)c3)CC2)c1` (centres unmarked) [Example 75, 2-{5-[1-(3,5-Difluoro-benzyl)-piperidin-4-yl]-4′-trifluoromethyl-biphenyl-3-yl}-4-methyl-pentanoic acid]: the inhibition at 1 µM worked out at 46%. As for `CC(C)CC(C(=O)O)c1cc(-c2ccc(C(F)(F)F)cc2)cc(N2CCC(F)(F)CC2)c1` (centres unmarked) [Example 5, 2-(5-(4,4-difluoropiperidin-1-yl)-4′-(trifluoromethyl)biphenyl-3-yl)-4-methylpentanoic acid], the figure is 8%; as for `CC(C)CC(C(=O)O)c1cc(-c2ccc(C(F)(F)F)cc2)cc(C2CCCN(Cc3ccc4ccccc4c3)C2)c1` (centres unmarked) [Example 46, 4-Methyl-2-[5-(1-naphthalen-2-ylmethyl-piperidin-3-yl)-4′-trifluoromethyl-biphenyl-3-yl]-pentanoic acid], 57%; as for `CC(C)CC(C(=O)O)c1cc(-c2ccc(C(F)(F)F)cc2)cc(C2CCCN(C(C)c3ccc(C(F)(F)F)cc3)C2)c1` (single isomer, unassigned) [Example 63, (S*)-4-Methyl-2-(4′-trifluoromethyl-5-{1-[1-(4-trifluoromethyl-phenyl)-ethyl]-piperidin-3-yl}-biphenyl-3-yl)-pentanoic acid], 44%. For `CC(C)CC(C(=O)O)c1cc(-c2ccc(C(F)(F)F)cc2)cc(C2CCCN(C(=O)c3ccc(C(F)(F)F)cc3)C2)c1` (centres unmarked) [Example 43, 4-Methyl-2-{4′-trifluoromethyl-5-[1-(4-trifluoromethyl-benzoyl)-piperidin-3-yl]-biphenyl-3-yl}-pentanoic acid], the inhibition at 1 µM was found to be 55%. `CC(C)CC(C(=O)O)c1cc(-c2ccc(C(F)(F)F)cc2)cc(N2CCN(c3cccc(C(F)(F)F)c3)CC2)c1` (centres unmarked) [Example 80, 4-Methyl-2-{4′-trifluoromethyl-5-[4-(3-trifluoromethyl-phenyl)-piperazin-1-yl]-biphenyl-3-yl}-pentanoic acid] yielded an inhibition at 1 µM of 35%. The figure for `CC(C)CC(C(=O)O)c1cc(-c2ccc(C(F)(F)F)cc2)cc(C2CCCN(S(=O)(=O)c3cccc(C(F)(F)F)c3)C2)c1` (centres unmarked) [Example 40, 4-Methyl-2-{4′-trifluoromethyl-5-[1-(3-trifluoromethyl-benzenesulfonyl)-piperidin-3-yl]-biphenyl-3-yl}-pentanoic acid] is 70%; for `CC(C)CC(C(=O)O)c1cc(-c2ccc(C(F)(F)F)cc2)cc(N2CCN(c3ccc(C(F)(F)F)cc3)CC2)c1` (centres unmarked) [Example 81, 4-Methyl-2-{4′-trifluoromethyl-5-[4-(4-trifluoromethyl-phenyl)-piperazin-1-yl]-biphenyl-3-yl}-pentanoic acid] it is 63%. The figure for `CC(C)CC(C(=O)O)c1cc(-c2ccc(C(F)(F)F)cc2)cc(C2CCN(C3CCCCC3)CC2)c1` (centres unmarked) [Example 74, 2-[5-(1-Cyclohexyl-piperidin-4-yl)-4′-trifluoromethyl-biphenyl-3-yl]-4-methyl-pentanoic acid] is 4%; for `CC(C)/C=C/CN1CCC(c2cc(-c3ccc(C(F)(F)F)cc3)cc(C(CC(C)C)C(=O)O)c2)CC1` (centres unmarked) [Example 69, 4-Methyl-2-{5-[1-(4-methyl-pent-2-enyl)-piperidin-4-yl]-4′-trifluoromethyl-biphenyl-3-yl}-pentanoic acid] it is 8%; for `CC(C)CC(C(=O)O)c1cc(-c2ccc(C(F)(F)F)cc2)cc(C2CCC(C(F)(F)F)N(Cc3ccncc3)C2)c1` (centres unmarked) [Example 25, 4-Methyl-2-[5-(1-pyridin-4-ylmethyl-6-trifluoromethyl-piperidin-3-yl)-4′-trifluoromethyl-biphenyl-3-yl]-pentanoic acid] it is 23%. In the case of `CC(C)CCCN1CCC(c2cc(-c3ccc(C(F)(F)F)cc3)cc(C(CC(C)C)C(=O)O)c2)CC1` (centres unmarked) [Example 77, 4-Methyl-2-{5-[1-(4-methyl-pentyl)-piperidin-4-yl]-4′-trifluoromethyl-biphenyl-3-yl}-pentanoic acid], the inhibition at 1 µM is 36%. As for `CCN1CCCC(c2cc(-c3ccc(C(F)(F)F)cc3)cc(C(CC(C)C)C(=O)O)c2)C1` (centres unmarked) [Example 66, 2-[5-(1-Ethyl-piperidin-3-yl)-4′-trifluoromethyl-biphenyl-3-yl]-4-methyl-pentanoic acid], the figure is 0%. Compound `CC(C)CC(C(=O)O)c1cc(-c2ccc(C(F)(F)F)cc2)cc(C2CC[N+](C)(C)CC2)c1` (centres unmarked) [Example 73, 2-[5-(1,1-Dimethyl-piperidin-4-yl)-4′-trifluoromethyl-biphenyl-3-yl]-4-methyl-pentanoic acid] registered an inhibition at 1 µM of 9%. As for `CC(C)CCN1CCCCC1c1cc(-c2ccc(C(F)(F)F)cc2)cc(C(CC(C)C)C(=O)O)c1` (centres unmarked) [Example 10, 4-Methyl-2-{5-[1-(3-methyl-butyl)-piperidin-2-yl]-4′-trifluoromethyl-biphenyl-3-yl}-pentanoic acid], the figure is 34%; as for `COc1ccc(CN2C(c3cc(-c4ccc(C(F)(F)F)cc4)cc(C(CC(C)C)C(=O)O)c3)CCCC2C(F)(F)F)cc1` (centres unmarked) [Example 7, 2-{5-[1-(4-Methoxy-benzyl)-6-trifluoromethyl-piperidin-2-yl]-4′-trifluoromethyl-biphenyl-3-yl}-4-methyl-pentanoic acid], 70%. For the compound `CC(C)CC(C(=O)O)c1cc(-c2ccc(C(F)(F)F)cc2)cc(C2CCCN(Cc3ccc(OC(F)(F)F)cc3)C2)c1` (centres unmarked) [Example 47, 4-Methyl-2-{5-[1-(4-trifluoromethoxy-benzyl)-piperidin-3-yl]-4′-trifluoromethyl-biphenyl-3-yl}-pentanoic acid], 1 µM produced 61% inhibition.
